Results: a melting point compilation (Tetko et al.; mined from patent text by program, amines drawn as free bases though some values may be those of a salt)

Compared with O=C(O)c1cn(-c2cnsn2)c2nc(N3CCCC3)c(F)cc2c1=O, CCn1cc(C(=O)O)c(=O)c2cc(F)c(N3CCNCC3)c(C)c21 is lower in melting point: 269 to 273 °C for the first, 153 to 156 °C for the second.

Compared with Cn1c(C(F)(F)F)cc(=O)n(-c2ccc(Cl)c3nc(N4CCCCC4)sc23)c1=O, CCCSc1ncnc2c(N3CCCCC3)nc(Cl)nc12 is higher in melting point: 102 to 104 °C for the first, 107 to 109 °C for the second.

Compared with O=C(c1ccncc1)[N+]1([O-])CCC(C(O)(c2ccc(Cl)cc2)c2nccs2)CC1 (stereo unspecified), c1ccc2c(NC3CCCCC3)nnc(Cc3ccncc3)c2c1 is lower in melting point: 215 to 217 °C for the first, 137 to 139 °C for the second.

First: NS(=O)(=O)N1CCN(c2ccc(Cl)cc2)CC1
Second: CNC(=O)c1ccc(N2CCN(Cc3cc4c(c(OC)c3)OC(C)C(=O)N4)CC2)cc1 (stereo unspecified)
The melting point of the first is lower: 218 to 220 °C for the first, 256 °C for the second.

Compared with CCCCCCCCCCNC(=O)c1cc(NCCC(=O)O)c(CCC(=O)O)c(C(=O)NCCCCCCCCCC)c1, CCCCCCCCCCCCCCCCCCCCCCC(COC(C)=O)(COC(C)=O)NC(C)=O is lower in melting point: 139 to 141 °C for the first, 94 to 95 °C for the second.

First: N#Cc1nc2ncccc2[nH]1
Second: O=S1c2ccccc2Nc2nccnc21 (stereo unspecified)
The melting point of the first is lower: 200 °C for the first, 261 to 263 °C for the second.

First: CC(C)N1CCc2[nH]c3ccc4scc(-c5ccccc5)c4c3c2C1
Second: O=C1Cc2cccc(Sc3ccccc3Cl)c2N1
The melting point of the first is higher: 204 °C for the first, 178 to 180 °C for the second.

Compared with CCOC(C)O[C@H]1C(=O)N(C(=O)Oc2ccccc2)[C@H]1c1ccccc1 (stereo partly specified), O=C(O)c1cc(=O)c2c(OCC(O)COc3ccccc3)cccc2o1 (stereo unspecified) is higher in melting point: 50 to 52 °C for the first, 88 to 90 °C for the second.

First: N#CCCNC(=O)c1cccc(-c2ccc3c(c2)N(c2ccc(Cl)cc2Cl)CCO3)c1
Second: NCCCNC(=O)c1ccc(-c2ccc3nnn(Cc4ccc5ncccc5c4)c3n2)cc1F
The melting point of the first is lower: 147 to 148 °C for the first, 292 to 294 °C for the second.

First: OC1CCCc2nc3ccccc3c(NCc3ccccc3)c21 (stereo unspecified)
Second: O=Cc1c(F)cccc1NCc1ccccc1
The melting point of the first is higher: 159 °C for the first, 72.5 to 74.5 °C for the second.

Compared with O=C1Oc2ccccc2Sc2ccccc21, CN(C)CCc1cccc(OCCN2C(=O)c3ccccc3C2=O)c1 is lower in melting point: 124 °C for the first, 84 to 85 °C for the second.

First: CC(C)Oc1c(C(N)=O)sc2ccc(N)cc12
Second: CCOC(=O)c1ncc2[nH]c3ccc(Br)cc3c2c1COC
The melting point of the first is lower: 150 to 151 °C for the first, 207 to 209 °C for the second.

First: CCOC(=O)C(C)=C(C)NC(=O)Nc1ccc(Cl)c(C(=O)OCC)c1
Second: CCOC(=O)c1[nH]c(C)nc1C(=S)OCC
The melting point of the first is lower: 88 to 91 °C for the first, 119 to 121 °C for the second.

N#CN=C(Nc1cccnc1)Oc1ccccc1 and O=[N+]([O-])c1ccc(S(=O)(=O)Nc2ccccc2)cc1 cannot be ordered by melting point: 154 to 155 °C for the first, 154 to 156 °C for the second.

First: O=c1ccn([C@H]2C=C[C@@H](O)C2)cc1 (racemic)
Second: CC(C)(C)OC(=O)N[C@H]1CN(Cc2ccccc2)[C@@H]2CCO[C@H]12 (relative stereo)
The melting point of the first is higher: 188 to 189 °C for the first, 115 to 116 °C for the second.

Compared with COc1cccc(-c2cnc(-c3ccoc3)s2)c1, COc1ccc(C(=O)c2cccc(C#N)c2)cc1 is higher in melting point: 61 to 62 °C for the first, 85 to 88 °C for the second.

First: C#CCCOC(c1ccccc1)(c1ccccc1)c1ccccc1
Second: O=C(C=Cc1ccccc1)C(Cc1ccccc1)C(=O)C=Cc1ccccc1 (stereo unspecified)
The melting point of the first is lower: 97 to 99 °C for the first, 156 to 158 °C for the second.

First: CCN1CCCC1CNC(=O)c1c(O)ccc(Br)c1O (stereo unspecified)
Second: CC(=O)Nc1cc2c3c(c1)c(=O)c(C(=O)O)cn3C(C)CC2 (stereo unspecified)
The melting point of the first is lower: 166 to 168 °C for the first, greater than 310 °C for the second.

Compared with Oc1ccc2ccc(OCc3ccccc3)cc2c1, CCCn1c2cc(OCc3ccccc3)ccc2c2ccnc(C)c21 is lower in melting point: 152 to 154 °C for the first, 113 °C for the second.

CCCCc1nc2cccc(C(=O)OCOC(=O)C(C)(C)C)c2n1Cc1ccc(-c2ccccc2-c2nnn[nH]2)cc1 and CCn1nc(C(C)(F)F)nc1Cc1ccc(-c2ccccc2-c2nnn[nH]2)nc1 cannot be ordered by melting point: 102 to 105 °C for the first, 103 to 104 °C for the second.

Compared with CN=Cc1cccc(C(=O)NC)c1, CNC(=O)CCC(=O)c1ccccc1 is lower in melting point: 87 °C for the first, 80 to 82 °C for the second.

First: CC(=O)SCC(Cc1ccc(C)cc1)C(=O)Nc1cccc(C(=O)O)c1C (stereo unspecified)
Second: CC(C)(C)OC(=O)NCCc1cccc(C(=O)c2cc(Cl)ccc2N)c1
The melting point of the first is higher: 206 to 208 °C for the first, 128 to 129 °C for the second.

First: CC(C)(C)C(=O)CC(=O)NC1CCCCC1
Second: CSC1NC(=O)N(C2CCCCC2)C(=O)N1N=C(C)C (stereo unspecified)
The melting point of the first is lower: 69 to 70 °C for the first, 111 to 112 °C for the second.

First: O=C(CN1CCC(Cc2ccc(F)cc2)CC1)Nc1ccc([N+](=O)[O-])cc1
Second: C#CC1(OC(=O)NCc2ccccc2)CCN(CCC=C(c2ccc(F)cc2)c2ccc(F)cc2)CC1
The melting point of the first is higher: 120 to 123 °C for the first, 53 to 54 °C for the second.

First: CC(=O)OC1CSC(Oc2cnc(Cl)c(F)c2)C(OC(C)=O)C1OC(C)=O (stereo unspecified)
Second: NC1(C2CCN(c3c(F)cc4c(=O)c(C(=O)O)cn(C5CC5)c4c3F)C2)CC1 (stereo unspecified)
The melting point of the first is lower: 158 to 162 °C for the first, 227 to 230 °C for the second.

Compared with CC1Cc2cc(Cl)c(Cl)cc2C(c2ccc([N+](=O)[O-])cc2)O1 (stereo unspecified), CS(=O)(=O)c1ccc(Oc2ccc(Cl)c(Cl)c2)nc1 is lower in melting point: 189 to 191 °C for the first, 120 to 121 °C for the second.

Compared with CC(C)COc1ccc2c(c1)N(C)C(=O)N(c1ccc(Cl)cc1)S2(=O)=O, Cn1c(=O)c(-c2ccc(Cl)cc2Cl)cc2c3cc(-c4nc(CN)cs4)ccc3n(C)c21 is higher in melting point: 108 to 110 °C for the first, 261 to 266 °C for the second.

Compared with NS(=O)(=O)c1ccc(-n2cccc2-c2ccc(F)cc2)cc1, O=[N+]([O-])c1ccc(NN=C(c2ccccc2)c2ccc(O)cc2)c([N+](=O)[O-])c1 is higher in melting point: 198 to 199 °C for the first, 224 to 225 °C for the second.

First: CC(C)c1nc2c([nH]1)c(=O)[nH]c(=O)n2Cc1ccncc1
Second: CSc1nc2c(cc1F)c(=O)[nH]c(=O)n2C1CC1
The melting point of the first is higher: 305 to 307 °C for the first, 220 to 222 °C for the second.

First: COc1ccc(CCc2cc3c(s2)NC(=S)CN=C3c2ccccc2Cl)cc1
Second: COc1ccccc1S(=O)(=O)N(C)c1cccc2cc(C3=NCC(CC(=O)O)S3)[nH]c12 (stereo unspecified)
The melting point of the first is lower: 185 to 186 °C for the first, 197 to 198 °C for the second.

First: CCC(Cc1c(I)cc(I)c(NC(=O)CN2CCNCCNCCNCC2)c1I)C(=O)O (stereo unspecified)
Second: CCOC(=O)CCCCOc1ccc(-c2nc(N3CCOCC3)c3sc(CN4CCN(S(C)(=O)=O)CC4)cc3n2)cc1
The melting point of the first is higher: 201 °C for the first, 110 to 114 °C for the second.

First: O=C(CCCCCCCCc1ccc(Cl)cc1)NO
Second: COc1cccc(CNC(CCCCCC(=O)O)C(C)C)c1 (stereo unspecified)
The melting point of the first is lower: 48 to 50 °C for the first, 64 to 67 °C for the second.

Compared with CCCCCCCCCCCCC#CC#CCn1c2ccccc2c2ccccc21, CCCCCCCCCCC#Cc1csc(C=O)n1 is lower in melting point: 53 to 58 °C for the first, 25.5 to 26 °C for the second.

First: Nc1ccc(C(=O)N2Cc3cccn3Cc3ccccc32)c(Cl)c1
Second: O=C(O)Cc1ccc2nc(-c3ccccc3)oc2c1
The melting point of the first is higher: 210 to 212 °C for the first, 170 °C for the second.

First: COc1ccc(NC(=S)NC(=O)c2ccccc2)cc1COc1cc(Cl)cc(Cl)c1
Second: Nc1ccccc1NC(=O)c1ccc(COc2ccc3ncnc(Nc4cccc(Br)c4)c3c2)cc1
The melting point of the first is lower: 167 to 169 °C for the first, 215 to 218 °C for the second.

First: CCOC(=S)Cc1nc2ccccc2s1
Second: CCCn1nc2c(N)nc3ccccc3c2c1CCCCN1C(C)=NOC1(C)C
The melting point of the first is lower: 45 to 48 °C for the first, 144 to 146 °C for the second.

First: C=CCN1Cc2cscc2Nc2ccccc21
Second: O=C1Nc2ccccc2N(CCCCCCN2CCCCC2)c2ccccc21
The melting point of the first is lower: 67 to 69 °C for the first, 124 to 125 °C for the second.

First: CNC(=O)c1c(NC(=O)c2cc(C(F)(F)F)nn2-c2ncccc2Cl)c(Br)cc2cn[nH]c12
Second: CNC(=O)c1cc(C)nc(NC(=O)c2cc(Cl)nn2-c2ncccc2Cl)n1
The melting point of the first is higher: greater than 255 °C for the first, 198 to 199 °C for the second.

First: CCOC(=O)c1c(CN(CC)CC)nc2sc(C)c(C)c2c1-c1ccc(OC)c(OC)c1
Second: COc1ccc2[nH]c(S(=O)Cc3ncc(C)c(N(C)C)c3Cl)nc2c1 (stereo unspecified)
The melting point of the first is lower: 110 to 111 °C for the first, 147 to 149 °C for the second.

Compared with COc1ccc(C=CC(C)=O)cc1, COc1ccccc1NC(=O)CCCC(C)=O is higher in melting point: 74 °C for the first, 101 to 102 °C for the second.

First: CCCCCCOC(=O)Oc1ccc2c(N3CCN(CCCC(=O)c4ccc(F)cc4)CC3)noc2c1
Second: CCCCCCNC(=O)OCCCCCCNC(=O)OC1CCN(C(=O)Oc2ccc(C3CCCCC3)cc2)CC1
The melting point of the first is lower: 77 to 80 °C for the first, 94 to 96 °C for the second.

Compared with CCCCCc1nc(-c2ncn3c2COC(=O)c2c(Cl)cccc2-3)no1, CCOCc1nc2c(N)nc3ccccc3c2n1CCCCS(=O)(=O)NC1CCCCC1 is higher in melting point: 110 to 112 °C for the first, 197 to 198 °C for the second.

CC(C)(C)N(O)Cc1ccc(CN(O)C(C)(C)C)cc1 and CCOC(=O)c1c(N2CCC(N(C)C)C2)c2cc(C)ccc2n(Cc2ccccc2)c1=O (stereo unspecified) cannot be ordered by melting point: 137 to 138 °C for the first, greater than 40 °C for the second.

First: CCc1cc([N+](=O)[O-])c(NC(CC)CC)c([N+](=O)[O-])c1C
Second: CCn1nc(Br)c([N+](=O)[O-])c1CCN
The melting point of the first is lower: 51 to 53 °C for the first, 84.9 to 87.4 °C for the second.

First: Cc1cccc(-c2coc3cc(O)c(O)cc3c2=O)c1
Second: CCOC(=O)/C=C/c1cccc(-c2c(CC(=O)Nc3ccc(F)cc3C(F)(F)F)c(=O)oc3cc(Cl)c(C)cc23)c1
The melting point of the first is higher: 258 °C for the first, 193 to 196 °C for the second.

COc1cccc(CC(=O)O)c1OCCCc1cn(-c2ccc(F)cn2)nc1C(C)C and COc1cccc2c(CCCN(CC3CC3)C3COc4c(F)ccc(C(N)=O)c4C3)coc12 (stereo unspecified) cannot be ordered by melting point: 125 to 126 °C for the first, 125 to 132 °C for the second.

First: Nc1cc(C(F)(F)C(F)(F)OC(F)(F)C(F)(F)OC(F)(F)C(F)(F)c2ccc(O)c(N)c2)ccc1O
Second: N=c1sc2cc(OC(F)(F)F)ccc2n1CCSc1ncccn1
The melting point of the first is higher: 150 to 152 °C for the first, 110 °C for the second.

First: CCOC(=O)Cn1c(C(=O)NCc2nncn2-c2sc(CC)cc2C(=O)c2ccccc2Cl)cc2ccccc21
Second: COC(=O)CCCc1cc2cc(Cl)ccc2n1S(=O)(=O)c1ccc2c(ccn2C(C)=O)c1
The melting point of the first is higher: 158 to 160 °C for the first, 127 to 131 °C for the second.

First: O=C(CC(=Cc1cccc2ccccc12)C(=O)O)NCCc1ccccc1
Second: CCCCC1(CCCC)CCc2c(OCc3ccccc3C#N)cccc2C1O (stereo unspecified)
The melting point of the first is higher: 183 to 187 °C for the first, 112 to 113 °C for the second.

First: CC1(CC2CCCC2)Cc2cc(CC(=O)O)c(Cl)c(Cl)c2C1=O (stereo unspecified)
Second: OC1Cc2cc(F)cc(F)c2C1 (stereo unspecified)
The melting point of the first is higher: 146 to 148 °C for the first, 52 to 56 °C for the second.

Molecule COc1ccccc1C1C2CCC(C2)C12CCC(=S)N2 (stereo unspecified) has a melting point of 194 °C.
